{"source": "paper PMC11063076", "about": "“Structural investigation of Trypanosoma cruzi Akt-like kinase as drug target against Chagas disease” (Scientific Reports, 2024)", "target": "T1, TcAkt (T. cruzi Akt-like kinase), PH domain (Trypanosoma cruzi, UniProt Q4D6D3)", "T1 construct": "gene Tc00.1047053509047.110; TcAkt-PH (aa 1–105), C-terminal 6xHis-tag", "T1 sequence (Q4D6D3 entry or part of it)": "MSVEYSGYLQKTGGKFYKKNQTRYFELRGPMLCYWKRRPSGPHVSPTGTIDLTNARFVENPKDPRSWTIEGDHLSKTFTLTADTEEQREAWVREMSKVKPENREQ", "experiment": "NMR 1H-15N HSQC chemical shift perturbation titration; hetNOE", "assay_type": "binding"}
{"compound": "O=P(O)(O)O[C@H]1[C@H](O)[C@@H](OP(=O)(O)O)[C@H](OP(=O)(O)O)[C@@H](OP(=O)(O)O)[C@H]1O", "note": "[Ins(1,3,4,5)P4]", "values": [{"measurement": "Kd", "value": "40 ± 14", "unit": "µM"}]}
